According to patent US12312346B2, “Pyridopyrimidine compounds and methods of their use” (Tufts Medical Center, Inc., priority 2018, dated 2025):
Entries after “also recorded” stand apart in the source; their conditions may differ.

Assays:
[1] = test system: human leukemia cell line PEER (with WT Notch); assay: Cell cycle (PI staining, S-G2-M cells), PEER; type: cell-based
Method: FIG. 3A Representative cell cycle profiles of human leukemia cell line PEER (with WT Notch) treated with a vehicle (V) (for palbociclib (PD) or compound GD), PD (0.5 μM), or compound GD at 0.05, 0.5, and 5 μM for 6 days.
FIG. 3B is a histogram summarizing the cell cycle distribution of the PEER cell line in FIG. 3A. Data shown are mean±S.D. (n=6); *P<0.05 vs its vehicle controls, t-test.
FIG. 3C is a chart showing the percentage of S-G2-M cells in FIG. 3B. […]
(§1) Table 2: Experimental Procedures: sensitivity to CDK6 kinase activity inhibition was tested by incubating different cell lines in the presence of CDK6 inhibitor GD007/PBS for either 24 hours for detecting the status of pRB-780 phosphorylation, or 5 days for determining the effect of GD007 on cell proliferation. (1) By immunoblotting (WB), we will detect phospho-pRB-S^780, one of the substrates of CDK6 kinase; (2) By using FACS analysis, we will stain treated cells with Propidium Iodide (PI), a commonly used fluorescent intercalator, to measure the subpopulation of cell cycle to reveal any impact of CDK6 inhibition on cell proliferation; (3) cell numbers will be counted using hemocytometer.

[2] = test system: phosphorylated pRB at SER-780 in HPAC-1 cells; assay: Immunoblot of phosphorylated pRB (SER-780) and PI staining, HPAC-1; type: cell-based
Method: FIG. 5D is an image of a representative immunoblot showing the levels of phosphorylated pRB at SER-780 in HPAC-1 cells following treatment of these cells with a vehicle, PD, or compound GD for 24 hours. Tubulin was used as loading control.
as §1

[3] = test system: A549 (lung cancer cells) xenograft tumors; assay: A549 xenograft mouse model; type: in vivo; conditions: female Nod/Scid mice
Method: A549 cells (3×10^5/each side) were inoculated ectopically in female Nod/Scid mice. One week after inoculation, tumor bearing mice were treated with GD at 200 mg/kg/day or PBS by oral gavage for 21 days. Data shown are mean±S.D. (n=8 for each group), *p<0.05, t-test, GD vs. PBS.
FIG. 10B is a graph showing body weight of two groups of mice during the observation time. Body weights shown are mean±S.D. (n=4 for each group).
We examined the therapeutic efficacy of GD against A549 (lung cancer cells) xenograft tumors. A549 cells (3×10^5 per side in 100 μl of 50% Matrigel) were inoculated ectopically in female Nod/Scid mice on both sides. When tumor sizes reached ˜50 mm^3, animals were divided into 2 groups (n=4 mice per group), and treated with PBS or GD at dose of 200 mg/kg/day over a 21-day period (Kwapisz, supra).
Tumor sizes were measured with standard calipers every day and tumor volumes were calculated using standard methods (caliper measurements are commonly collected along the longest two dimensions of the tumor x/y plane only, with the z-axis dimension assumed to be the same as the shortest dimension) (Tomayko et al., Cancer Chemother. Pharmacol. 24:148-154, 1989). Weekly body weights were measured at designed times. At the end of the experiments, all of the tumors were isolated from the mice and weighed.

IC50 ([1]; Homo sapiens, 144 h, PEER, 6 days, read-out: IC50 (percentage of S-G2-M cells, growth inhibition)): ~1.3 µM
Structure (SMILES): CC(=O)c1c(C)c2cnc(Nc3nc(CN4CCNCC4)cs3)nc2[nH]c1=O [Compound GD, 6-acetyl-5-methyl-2-((4-(piperazin-1-ylmethyl)thiazol-2-yl)amino)pyrido[2,3-d]pyrimidin-7(8H)-one]
Compound GD Efficacy ([1]; Leukemic cells: PEER, PI Staining, and cell number counting): Efficacious
Compound GD Efficacy ([2]; Pancreas Cancer: HPAC, WB and PI staining): Efficacious
pRB phosphorylation ([2]; pancreas adenocarcinoma (HPAC-1), 24 hours): inhibits pRB phosphorylation
tumor weights vs PBS ([3]; 200 mg/kg/day for 21 days, end of experiment, FIGS. 10D-10E): reduced; also recorded: decreased tumor weights
tumor volumes (xenograft tumor growth) vs PBS ([3]; 200 mg/kg/day oral gavage for 21 days, FIG. 10A): reduced; also recorded: suppressed xenograft tumor growth
